Reference: paper PMC9057277 (RSC Advances, 2020)
pIC50: −log10 of the molar value. Where two headings read alike, the source gives them in different places.

Tests used:
purified ovine COX-1 = molecular target: T1, purified ovine COX-1 (Ovis aries, UniProt P05979); test: COX Fluorescent Inhibitor Screening Assay Kit, COX-1
T1 sequence (P05979 25-600): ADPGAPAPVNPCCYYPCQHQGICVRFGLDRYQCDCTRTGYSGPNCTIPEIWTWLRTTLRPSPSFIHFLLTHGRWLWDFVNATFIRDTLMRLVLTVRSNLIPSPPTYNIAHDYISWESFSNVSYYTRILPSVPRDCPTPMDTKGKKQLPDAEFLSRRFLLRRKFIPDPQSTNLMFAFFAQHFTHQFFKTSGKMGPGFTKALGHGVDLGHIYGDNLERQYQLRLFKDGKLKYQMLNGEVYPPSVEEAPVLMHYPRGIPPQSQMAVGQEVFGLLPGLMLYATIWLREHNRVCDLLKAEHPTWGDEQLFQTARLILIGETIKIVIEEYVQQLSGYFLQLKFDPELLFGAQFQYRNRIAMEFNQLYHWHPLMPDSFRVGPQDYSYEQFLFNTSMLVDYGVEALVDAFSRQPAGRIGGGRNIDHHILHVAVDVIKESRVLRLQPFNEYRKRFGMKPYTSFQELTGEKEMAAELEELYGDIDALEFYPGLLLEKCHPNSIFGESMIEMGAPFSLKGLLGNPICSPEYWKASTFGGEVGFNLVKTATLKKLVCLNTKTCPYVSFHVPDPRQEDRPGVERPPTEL
Protocol: 7.4.1 COX inhibition assay
The COX inhibition potency against ovine COX-1 and human COX-2 was determined using the
fluorescence-based COX assay ’COX Fluorescent Inhibitor Screening Assay Kit‘ (catalog number
reported by us.7 In brief, as a measure of COX mediated conversion of arachidonic acid to PG H2 in the
presence of different inhibitor concentrations this assay utilizes the peroxidase component of COX and
analyzes the formation of fluorescent resorufin. All compounds were assayed in a concentration range
of 10 nM to 100 μM, and every inhibitor concentration was assayed in duplicate.
as internal control. IC50 values were estimated using a nonlinear logistic regression ﬁtting procedure
(sigmoidal dose−response model) with Prism Software.

recombinant human COX-2 = molecular target: T2, recombinant human COX-2 (Homo sapiens, UniProt P35354); test: COX Fluorescent Inhibitor Screening Assay Kit, COX-2; format: biochemical
T2 construct: purchased Cayman Chemical, Ann Arbor, MI 700100
T2 sequence (P35354 18-604): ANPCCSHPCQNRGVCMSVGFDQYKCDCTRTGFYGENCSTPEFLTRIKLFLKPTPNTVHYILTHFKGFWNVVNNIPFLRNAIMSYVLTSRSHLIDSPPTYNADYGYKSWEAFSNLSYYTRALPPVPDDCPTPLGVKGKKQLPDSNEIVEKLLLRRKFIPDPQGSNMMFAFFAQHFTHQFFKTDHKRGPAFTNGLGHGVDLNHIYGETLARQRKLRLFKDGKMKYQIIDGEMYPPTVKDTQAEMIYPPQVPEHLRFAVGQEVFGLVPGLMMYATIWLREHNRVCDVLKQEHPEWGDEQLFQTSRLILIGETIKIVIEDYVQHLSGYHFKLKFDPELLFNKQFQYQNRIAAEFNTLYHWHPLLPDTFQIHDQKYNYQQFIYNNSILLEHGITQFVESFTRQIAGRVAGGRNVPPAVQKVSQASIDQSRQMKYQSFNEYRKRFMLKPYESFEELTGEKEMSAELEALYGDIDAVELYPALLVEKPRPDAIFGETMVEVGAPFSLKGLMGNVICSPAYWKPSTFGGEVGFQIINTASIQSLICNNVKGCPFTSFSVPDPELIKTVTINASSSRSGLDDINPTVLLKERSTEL

[1] = Ex vivo biodistribution in healthy rats; conditions: for Biodistribution BAT: brown adipose tissue; for Biodistribution WAT: white adipose tissue
log D7.4 by HPLC method = format: physicochemical; conditions: HPLC retention on ODP-50 4B column (Shodex Asahipak); pH 7.4, HPLC-based method
[2] = Metabolic stability in vivo: blood clearance, blood components, radiometabolites; set-up: species or system male Wistar rats; conditions: for half-life: male, Wistar, rat, arterial blood, iv, 70 MBq, i.v., arterial blood samples; for half-life / Intact compound in blood plasma: rats; for Intact compound in blood plasma: radio-HPLC
[3] = Stability towards liver microsomes of mice
[4] = i.v., 5 min p.i., n = 8, mean ± SD
[5] = i.v., 60 min p.i., n = 8, mean ± SD

`Cc1ccc(-c2cc(CCF)nn2-c2ccc(S(C)(=O)=O)cc2)cc1` [5b] gave a pIC50 (purified ovine COX-1) of 4.41, a pIC50 (recombinant human COX-2) of 5.60 and a Selectivity index (recombinant human COX-2; IC50 (COX-1)/IC50 (COX-2)) of 15.
With `Cc1ccc(-c2cc(C[18F])nn2-c2ccc(S(C)(=O)=O)cc2)cc1` [[^18F]5a, 3-([^18F]fluoromethyl)-1-[4-(methylsulfonyl)phenyl]-5-(p-tolyl)-1H-pyrazole] the “liver-to-bladder ratio (hepatobiliary vs renal excretion)” value ([1]; 60 min p.i.) was 2.3, the “Biodistribution BAT” value [1, 4] was 2.21 ± 0.91 SUV and the “Biodistribution BAT” value [1, 5] was 1.13 ± 0.29 SUV. It also gave a Biodistribution adrenals [1, 4] of 2.25 ± 1.19 SUV, a Biodistribution blood [1, 4] of 0.46 ± 0.15 SUV and a Biodistribution brain [1, 4] of 0.46 ± 0.14 SUV. It also gave a Biodistribution femur [1, 4] of 0.96 ± 0.53 SUV, a Biodistribution harderian gland [1, 4] of 1.5 ± 0.6 SUV and a Biodistribution heart [1, 4] of 0.79 ± 0.23 SUV. It also gave a Biodistribution intestine [1, 4] of 6.78 ± 2.69 %ID, a Biodistribution kidneys [1, 4] of 1.53 ± 0.49 SUV and a Biodistribution liver [1, 4] of 3.84 ± 1.52 SUV. For the same compound, the Biodistribution lung [1, 4] was 0.89 ± 0.38 SUV, the Biodistribution muscle [1, 4] was 0.35 ± 0.18 SUV and the Biodistribution pancreas [1, 4] was 0.97 ± 0.27 SUV. The “Biodistribution skin & hair” value [1, 4] was 0.97 ± 0.31 SUV, the Biodistribution spleen [1, 4] was 0.53 ± 0.24 SUV and the Biodistribution stomach [1, 4] was 0.87 ± 0.65 %ID. It also gave a Biodistribution testes [1, 4] of 0.34 ± 0.16 SUV, a Biodistribution thymus [1, 4] of 0.76 ± 0.18 SUV and a Biodistribution thyroid gland [1, 4] of 0.71 ± 0.4 SUV. The “Biodistribution urine (calc.)” value [1, 4] was 3.32 ± 4.35 %ID, the Biodistribution adrenals [1, 5] was 1.85 ± 1.91 SUV and the Biodistribution blood [1, 5] was 0.12 ± 0.04 SUV. The Biodistribution brain [1, 5] was 0.12 ± 0.04 SUV, the “Biodistribution femur (femur uptake, 18F-defluorination)” value [1, 5] was 4.1 ± 0.6 SUV and the Biodistribution harderian gland [1, 5] was 0.64 ± 0.28 SUV. For the same compound, the Biodistribution heart [1, 5] was 0.15 ± 0.02 SUV, the Biodistribution intestine [1, 5] was 19.43 ± 2.27 %ID and the Biodistribution kidneys [1, 5] was 0.36 ± 0.19 SUV. It also gave a Biodistribution liver [1, 5] of 0.78 ± 0.2 SUV, a Biodistribution lung [1, 5] of 0.19 ± 0.06 SUV and a Biodistribution muscle [1, 5] of 0.21 ± 0.1 SUV. For the same compound, the Biodistribution pancreas [1, 5] was 0.44 ± 0.28 SUV, the “Biodistribution skin & hair” value [1, 5] was 0.39 ± 0.2 SUV and the Biodistribution spleen [1, 5] was 0.18 ± 0.07 SUV. It also gave a Biodistribution stomach [1, 5] of 1.06 ± 0.42 %ID, a Biodistribution testes [1, 5] of 0.27 ± 0.17 SUV and a Biodistribution thymus [1, 5] of 0.28 ± 0.11 SUV. For the same compound, the Biodistribution thyroid gland [1, 5] was 0.67 ± 0.37 SUV, the “Biodistribution urine (calc.)” value [1, 5] was 8.55 ± 2.53 %ID and the “Biodistribution WAT” value [1, 4] was 1.45 ± 0.53 SUV. The “Biodistribution WAT” value [1, 5] was 1.67 ± 0.23 SUV, the chromatographic logD (log D7.4 by HPLC method) was 2.72 and the half-life ([2]; read-out: t1/2 distribution (blood clearance of intact compound)) was 0.6 min. For the same compound, the half-life ([2]; read-out: t1/2 elimination (blood clearance of intact compound)) was 19.5 min, the “Radioactivity distribution in blood components: erythrocytes” value ([2]; rat blood, 60 min p.i., + TCA) was 19% and the “Radioactivity distribution in blood components: plasma” value ([2]; rat blood, 60 min p.i., + TCA) was 71%. For the same compound, the “Radioactivity distribution in blood components: plasma supernatant” value ([2]; rat blood, 60 min p.i., + TCA) was 42%, the “Radioactivity distribution in blood components: plasma pellet (bound to plasma proteins)” value ([2]; rat blood, 60 min p.i., + TCA precipitation) was 25% and the “Radioactivity distribution in blood components: erythrocytes” value ([2]; rat blood, 60 min p.i., - TCA) was 17%. The “Radioactivity distribution in blood components: plasma” value ([2]; rat blood, 60 min p.i., - TCA) was 67%, the “Radioactivity distribution in blood components: plasma pellet” value ([2]; rat blood, 60 min p.i., - TCA) was 1% and the “Radioactivity distribution in blood components: plasma supernatant” value ([2]; rat blood, 60 min p.i., - TCA) was 80%. For the same compound, the “Intact compound in blood plasma” value ([2]; 20 min p.i.) was 46% and the “Intact compound in blood plasma” value ([2]; 60 min p.i.) was 28%.
In the case of `C[C@]12CC[C@H]3[C@@H](CCC4=CC(=O)CC[C@@]43C)[C@@H]1CC[C@@H]2O` [Testosteron, reference compound], the “conversion by mouse liver microsomes (positive control for oxidation)” value [3] was “Complete conversion”.
